Literature values as cited in patent publication US9308182B2 (TEVA PHARMACEUTICAL INDUSTRIES, LTD., priority 2012, dated 2016).
Where two headings read alike, the source gives them in different places.

Tests used:
[1] = cited from earlier work
MAO = details: metabolite of rasagiline; cited from earlier work

| Compound | increase in blood pressure ([1]; 1 mg injected into the portal vein) [mmHg] | increase in blood pressure ([1]; 1 mg injected systematically) [mmHg] | MAO inhibition (MAO) |
| --- | --- | --- | --- |
| NCCc1ccc(O)cc1 [Tyramine, tyramine] | 18 | 59 | – |
| NC1CCc2ccccc21 (stereo not drawn) [aminoindan] | – | – | does not inhibit MAO |
